This passage reports Kd results from patent US20040072162A1, “Hiv peptides and nucleic acids encoding them for diagnosis and control of hiv infection” (priority 2000, published 2004).

Molecules are shown by their SMILES. Peptide text beside a SMILES is read from it.

The target in this assay is HLA-A2 MHC-I (HLA-A*0204) (Homo sapiens, UniProt P04439, D140Y/D185E/D98H/E176V/E277Q/G131W/G231S/I119V/I121M/I166T/I218V/L300P/L318F/N151K/N90K/P208A/P217A/Q86G/Q94H/R138H/R169H/T345S). The experiment in a line: biochemical.
The term Kd denotes a measure of binding affinity in units of concentration. Higher therefore signals lower affinity. `CC[C@H](C)[C@H](NC(=O)[C@@H]1CCCN1C(=O)[C@@H]1CCCN1C(=O)[C@H](CC(N)=O)NC(=O)[C@H](CC(C)C)NC(=O)[C@@H](N)[C@@H](C)O)C(=O)N1CCC[C@H]1C(=O)N[C@H](C(=O)O)C(C)C` [8.123mod] (H-TLNPPIPV-OH) displayed a dissociation constant Kd of 11 nM. In other words, the double-digit nanomolar range.

In turn, `CC[C@H](C)[C@H](NC(=O)[C@@H]1CCCN1C(=O)[C@@H]1CCCN1C(=O)[C@H](CC(N)=O)NC(=O)CNC(=O)[C@@H](N)[C@@H](C)O)C(=O)N1CCC[C@H]1C(=O)N[C@H](C(=O)O)C(C)C` [8.123natG] (H-TGNPPIPV-OH) returned a Kd of 700 nM.

Regarding `CC[C@H](C)[C@H](NC(=O)[C@H](CCC(=O)O)NC(=O)[C@@H]1CCCN1C(=O)[C@H](CC(=O)O)NC(=O)CNC(=O)[C@H](CC(C)C)NC(=O)[C@@H](N)CO)C(=O)N[C@H](C(=O)O)C(C)C` [8.130mod] (H-SLGDPEIV-OH), the affinity, expressed as Kd, was 260 nM.

The compound `CC[C@H](C)[C@H](NC(=O)[C@H](CCC(=O)O)NC(=O)[C@@H]1CCCN1C(=O)[C@H](CC(=O)O)NC(=O)CNC(=O)CNC(=O)[C@@H](N)CO)C(=O)N[C@H](C(=O)O)C(C)C` [8.130nat] (H-SGGDPEIV-OH) yielded a dissociation constant (Kd) of 950 nM.

`CC(C)C[C@H](NC(=O)[C@@H](N)Cc1ccccc1)C(=O)NCC(=O)N[C@@H](C)C(=O)N[C@@H](C)C(=O)NCC(=O)N[C@@H](CO)C(=O)N[C@H](C(=O)O)C(C)C` [8.135mod] (H-FLGAAGSV-OH) came in with a dissociation constant Kd of 5 nM. Against the preceding compound, the Kd is about 190-fold lower.

For `CC(C)C[C@H](NC(=O)[C@@H](N)Cc1ccccc1)C(=O)NCC(=O)N[C@@H](C)C(=O)N[C@@H](C)C(=O)NCC(=O)N[C@@H](CO)C(=O)N[C@H](C(=O)O)[C@@H](C)O` [8.135nat] (H-FLGAAGST-OH), the Kd was determined as 870 nM.

Compound `CC(C)C[C@H](NC(=O)[C@@H](NC(=O)[C@@H](N)CCCNC(=N)N)[C@@H](C)O)C(=O)N[C@@H](CC(N)=O)C(=O)N[C@@H](C)C(=O)N[C@@H](Cc1c[nH]c2ccccc12)C(=O)N[C@H](C(=O)N[C@@H](CCCCN)C(=O)N[C@H](C(=O)O)C(C)C)C(C)C` [reference compound] (H-RTLNAWVKV-OH) came in with an equilibrium dissociation constant (Kd) of 170 nM. Compared with the last compound, the Kd is about 5.1-fold lower.
